Patent publication US9040516B2, “Uracil derivative and use thereof for medical purposes” (SUMITOMO DAINIPPON PHARMA CO., LTD., priority 2011, dated 2015)

Molecular target: T1, human neutrophil elastase (Homo sapiens, UniProt P08246)
T1 construct: purchased Elastin Products Company
T1 sequence (P08246 30-267): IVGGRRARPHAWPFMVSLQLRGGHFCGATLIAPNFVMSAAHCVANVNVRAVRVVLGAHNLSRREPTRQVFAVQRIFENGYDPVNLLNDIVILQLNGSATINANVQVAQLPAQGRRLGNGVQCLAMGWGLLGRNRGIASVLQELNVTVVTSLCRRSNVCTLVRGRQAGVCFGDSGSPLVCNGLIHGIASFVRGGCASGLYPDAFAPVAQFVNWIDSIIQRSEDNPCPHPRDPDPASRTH
Test: Inhibitory action 2 against human neutrophil elastase (Test Example 2; fluorogenic substrate MeOSuc-AAPV-AMC, buffer with 400 mM NaCl, 0.2 mg/ml BSA)
Type: biochemical
Settings: 37° C., read-out: IC50 value (compound concentration required for 50% inhibition of human neutrophil elastase)
Procedure: (§1) Assay buffer (0.4 unit/ml HNE (human neutrophil elastase, available from Elastin Products Company), 200 mM HEPES [N-(2-hydroxyethyl)piperazine-N′-(2-ethanesulfonic acid)], pH 7.5, 400 mM NaCl, 0.2 mg/ml BSA (bovine serum albumin)) 100 μl, water for injection 20 μl and 1% DMSO (dimethyl sulfoxide) solution of the present compound 20 μl were mixed in a 96 well plate and the mixed solutions were pre-incubated at 37° C. for five minutes. After pre-incubation, MeOSuc-AAPV-AMC (methoxysuccinyl-alanyl-alanyl-prolyl-valyl-aminomethyl cumaride (available from Sigma Aldrich Corp.) solution as fluorogenic substrate (which was dissolved in 10% DMSO solution so as to adjust to 0.5 mM) 40 μl was added to the above-prepared mixed solution so as to initiate the reaction, and the mixture was incubated at 37° C. for five minutes. The fluorescence intensity of AMC was measured at an excitation wavelength of 380 nm and a fluorescence wavelength of 460 nm and the inhibition ratio was determined.

| Compound | IC50 |
| --- | --- |
| Cc1c(-c2ccnn2-c2ccc(C#N)cc2)c(=O)n([C@H](C)CS(N)(=O)=O)c(=O)n1-c1cccc(C(F)(F)F)c1 [Example 324, (R)-2-(5-(1-(4-Cyanophenyl)-1H-pyrazol-5-yl)-4-methyl-2,6-dioxo-3-(3-trifluoromethylphenyl)-2,3-dihydropyrimidin-1(6H)-yl)propane-1-sulfonamide] | 9.6 nM |
| Cc1c(-c2ccnn2-c2ccc(C#N)cc2F)c(=O)n(C)c(=O)n1-c1cccc(C(F)(F)F)c1 [Example 326] | 24.3 nM |
| Cc1cc(C#N)ccc1-n1nccc1-c1c(C)n(-c2cccc(C(F)(F)F)c2)c(=O)n(C)c1=O [Example 328] | 24.8 nM |
| CC(=O)N1CCC(n2c(=O)c(-c3ccnn3-c3ccc(C#N)cc3)c(C)n(-c3cccc(C(F)(F)F)c3)c2=O)CC1 [Example 337] | 4.5 nM |
| CCCN1CCC(n2c(=O)c(-c3ccnn3-c3ccc(C#N)cc3)c(C)n(-c3cccc(C(F)(F)F)c3)c2=O)C1 (centres unmarked) [Example 343] | 7.3 nM |
| Cc1c(-c2ccnn2-c2ccc(C#N)cc2)c(=O)n(C2CCN(C(=O)C(C)(C)O)CC2)c(=O)n1-c1cccc(C(F)(F)F)c1 [Example 355] | 8.1 nM |
| Cc1c(-c2ccnn2-c2ccc(C#N)cc2)c(=O)n(C2CCN(C(=O)C(C)(C)N)CC2)c(=O)n1-c1cccc(C(F)(F)F)c1 [Example 357] | 10.2 nM |
| Cc1c(-c2c(F)cnn2-c2ccc(C#N)cc2)c(=O)n(C)c(=O)n1-c1cccc(C(F)(F)F)c1 [Example 358, 4-(5-(3,6-dimethyl-2,4-dioxo-1-(3-trifluoromethylphenyl)-1,2,3,4-tetrahydropyrimidin-5-yl)-4-fluoro-1H-pyrazol-1-yl)benzonitrile] | 29.5 nM |
| CC(=O)N1CCC(n2c(=O)c(-c3c(F)cnn3-c3ccc(C#N)cc3)c(C)n(-c3cccc(C(F)(F)F)c3)c2=O)CC1 [Example 359] | 15.3 nM |
| Cc1c(-c2c(Cl)cnn2-c2ccc(C#N)cc2)c(=O)n(C)c(=O)n1-c1cccc(C(F)(F)F)c1 [Example 360, 4-(4-chloro-5-(3,6-dimethyl-2,4-dioxo-1-(3-trifluoromethylphenyl)-1,2,3,4-tetrahydropyrimidin-5-yl)-1H-pyrazol-1-yl)benzonitrile] | 16.7 nM |
| Cc1c(-c2c(Cl)cnn2-c2ccc(C#N)cc2)c(=O)n(C(C)C(N)=O)c(=O)n1-c1cccc(C(F)(F)F)c1 (centres unmarked) [Example 361] | 6.3 nM |
| Cc1c(-c2c(C#N)cnn2-c2ccc(C#N)cc2)c(=O)n(C)c(=O)n1-c1cccc(C(F)(F)F)c1 [Example 363, 1-(4-Cyanophenyl)-5-(3,6-dimethyl-2,4-dioxo-1-(3-trifluoromethyl)-1,2,3,4-tetrahydropyrimidin-5-yl)-1H-pyrazole-4-carbonitrile] | 19.1 nM |
| Cc1c(-c2c(C#N)cnn2-c2ccc(C#N)cc2)c(=O)n([C@@H]2CCN(C)C2)c(=O)n1-c1cccc(C(F)(F)F)c1 [Example 367] | 14 nM |
| Cc1c(-c2ccnn2-c2ccc(C#N)cc2)c(=O)n([C@H](C)CS(C)(=O)=O)c(=O)n1-c1cccc(C(F)(F)F)c1 [Example 375] | 12.3 nM |
| Cc1c(-c2ccnn2-c2ccc(C#N)cc2)c(=O)n(C(C)C(=O)N(C)C)c(=O)n1-c1cccc(C(F)(F)F)c1 (centres unmarked) [Example 379] | 18.7 nM |
| Cc1c(-c2ccnn2-c2ccc(C#N)cc2)c(=O)n(C(C)C(=O)N2CC(O)C2)c(=O)n1-c1cccc(C(F)(F)F)c1 (centres unmarked) [Example 383] | 12.8 nM |
| Cc1c(-c2ccnn2-c2ccc(C#N)cc2)c(=O)n(C(C)CN2CCOCC2)c(=O)n1-c1cccc(C(F)(F)F)c1 (centres unmarked) [Example 386] | 10.1 nM |
| Cc1c(-c2ccnn2-c2ccc(C#N)cc2)c(=O)n(C(C)CN2CCC(S(C)(=O)=O)CC2)c(=O)n1-c1cccc(C(F)(F)F)c1 (centres unmarked) [Example 387] | 8.9 nM |
| Cc1c(-c2ccnn2-c2ccc(C#N)cc2)c(=O)n(C(C)CN2CC(O)C2)c(=O)n1-c1cccc(C(F)(F)F)c1 (centres unmarked) [Example 390] | 10.4 nM |
| Cc1c(-c2ccnn2-c2ccc(C#N)cc2)c(=O)n(C(C)CNS(C)(=O)=O)c(=O)n1-c1cccc(C(F)(F)F)c1 (centres unmarked) [Example 393] | 26.3 nM |
| Cc1c(-c2ccnn2-c2ccc(C#N)cc2)c(=O)n(C(C)CCN2CCOCC2)c(=O)n1-c1cccc(C(F)(F)F)c1 (centres unmarked) [Example 399] | 12.9 nM |
| Cc1c(-c2ccnn2-c2ccc(C#N)cc2)c(=O)n(C(C)CCNC2CC(F)(F)C2)c(=O)n1-c1cccc(C(F)(F)F)c1 (centres unmarked) [Example 406] | 12.9 nM |
| Cc1c(-c2ccnn2-c2ccc(C#N)cc2)c(=O)n(C(C)CCNc2ccncc2)c(=O)n1-c1cccc(C(F)(F)F)c1 (centres unmarked) [Example 408] | 14.7 nM |

Molecular target: T1, human neutrophil elastase
Test: Inhibitory action against human neutrophil elastase (Test Example 1; fluorogenic substrate MeOSuc-AAPV-AMC, buffer with 2M NaCl, 0.002% Brij-35)
Type: biochemical
Settings: 37° C., read-out: IC50 value (compound concentration required for 50% inhibition of human neutrophil elastase)
Procedure: as §1, with “7.5, 2M” for “7.5, 400 mM”, “NaCl, 0.002% Brij-35)” for “NaCl, 0.2 mg/ml BSA (bovine serum albumin))”, “injection 40” for “injection 20”, “and” for “and 1%”, “Aldrich Co.)” for “Aldrich Corp.)”

| Compound | IC50 |
| --- | --- |
| 2-[3,6-dimethyl-2,4-dioxo-1-(3-trifluoromethylphenyl)-1,2,3,4-tetrahydropyrimidin-5-yl]biphenyl-4-carbonitrile [Example 60] | 76 nM |
| 5-[1-(-chlorophenyl)-1H-pyrazol-5-yl]-3,6-dimethyl-1-(3-trifluoromethylphenyl)pyrimidin-2,4(1H,3H)-dione [Example 21] | 252 nM |
| CCOC(=O)Cn1c(=O)c(-c2ccnn2-c2ccc(C#N)cc2)c(C)n(-c2cccc(C(F)(F)F)c2)c1=O [Example 3] | 104 nM |
| CCOC(=O)CCn1c(=O)c(-c2ccnn2-c2ccc(C#N)cc2)c(C)n(-c2cccc(C(F)(F)F)c2)c1=O [Example 4, 3-[5-[1-(4-cyanophenyl)-1H-pyrazol-5-yl]-4-methyl-2,6-dioxo-3-(3-trifluoromethylphenyl)-2,3-dihydropyrimidin-1(6H)-yl]propanoic acid ethyl ester] | 131 nM |
| CCOC(=O)CCCn1c(=O)c(-c2ccnn2-c2ccc(C#N)cc2)c(C)n(-c2cccc(C(F)(F)F)c2)c1=O [Example 5, 4-[5-[1-(4-cyanophenyl)-1H-pyrazol-5-yl]-4-methyl-2,6-dioxo-3-(3-trifluoromethylphenyl)-2,3-dihydropyrimidin-1(6H)-yl]butanoic acid ethyl ester] | 170 nM |
| Cc1c(-c2ccnn2-c2ccc(C#N)cc2)c(=O)n(CC(=O)OCc2ccccc2)c(=O)n1-c1cccc(C(F)(F)F)c1 [Example 6, 2-[5-[1-(4-cyanophenyl)-1H-pyrazol-5-yl]-4-methyl-2,6-dioxo-3-(3-trifluoromethylphenyl)-2,3-dihydropyrimidin-1(6H)-yl]acetic acid benzyl ester] | 123 nM |
| COC(Cn1c(=O)c(-c2ccnn2-c2ccc(C#N)cc2)c(C)n(-c2cccc(C(F)(F)F)c2)c1=O)OC [Example 7, 4-[5-[3-(2,2-dimethoxyethyl)-6-methyl-2,4-dioxo-1-(3-trifluoromethylphenyl)-1,2,3,4-tetrahydropyrimidin-5-yl]-1H-pyrazol-1-yl]benzonitrile] | 120 nM |
| Cc1c(-c2ccnn2-c2ccc(C#N)cc2)c(=O)n(CCCCCNC(=O)OC(C)(C)C)c(=O)n1-c1cccc(C(F)(F)F)c1 [Example 8, tert-butyl 5-[5-[1-(4-cyanophenyl)-1H-pyrazol-5-yl]-4-methyl-2,6-dioxo-3-(3-trifluoromethyl)-2,3-dihydropyrimidine-1(6H)-yl]pentylcarbamate] | 64 nM |
| COc1ccc(Cn2c(=O)c(-c3ccnn3-c3ccc(C#N)cc3)c(C)n(-c3cccc(C(F)(F)F)c3)c2=O)cc1 [Example 9, 4-[5-[3-(4-methoxybenzyl)-6-methyl-2,4-dioxo-1-(3-trifluoromethylphenyl)-1,2,3,4-tetrahydropyrimidin-5-yl]-1H-pyrazol-1-yl]benzonitrile] | 2950 nM |
| Cc1c(-c2ccnn2-c2ccc(C#N)cc2)c(=O)n(C)c(=O)n1-c1cccc(C#N)c1 [Example 10, 3-[5-[1-(4-cyanophenyl)-1H-pyrazol-5-yl]-3,6-dimethyl-2,4-dioxo-3,4-dihydropyrimidin-1(2H)-yl]benzonitrile] | 648 nM |
| Cc1c(-c2ccnn2-c2ccc(C#N)cc2)c(=O)n(C)c(=O)n1-c1cccc(F)c1 [Example 11, 4-[5-[1-(3-fluorophenyl)-3,6-dimethyl-2,4-dioxo-1,2,3,4-tetrahydropyrimidin-5-yl]-1H-pyrazol-1-yl]benzonitrile] | 1360 nM |
| COc1cccc(-n2c(C)c(-c3ccnn3-c3ccc(C#N)cc3)c(=O)n(C)c2=O)c1 [Example 12, 4-[5-[1-(3-methoxyphenyl)-3,6-dimethyl-2,4-dioxo-1,2,3,4-tetrahydropyrimidin-5-yl]-1H-pyrazol-1-yl]benzonitrile] | 1490 nM |
